Source: ChEMBL document CHEMBL1201862, “PubChem BioAssay data set” (2004)
The source made the active and inactive calls.

Experiments:
[1] = molecular target: Serine/threonine-protein kinase pim-3 (Homo sapiens, UniProt Q86V86); assay type: functional;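 note: value obtained as one member of a broad kinase panel profiling effort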
[2] = molecular target: SRSF protein kinase 1 (Homo sapiens, UniProt Q96SB4); assay type: functional;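 note: measured as one member of a kinome-wide kinase profiling panel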
[3] = molecular target: Serine/threonine-protein kinase PLK4 (Homo sapiens, UniProt O00444); assay type: functional;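 note: PLK4 measured as one member of a kinome-wide kinase profiling panel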
[4] = molecular target: Protein-tyrosine kinase 6 (Homo sapiens, UniProt Q13882); assay type: functional
Sequence of Protein-tyrosine kinase 6 (Q13882 whole entry): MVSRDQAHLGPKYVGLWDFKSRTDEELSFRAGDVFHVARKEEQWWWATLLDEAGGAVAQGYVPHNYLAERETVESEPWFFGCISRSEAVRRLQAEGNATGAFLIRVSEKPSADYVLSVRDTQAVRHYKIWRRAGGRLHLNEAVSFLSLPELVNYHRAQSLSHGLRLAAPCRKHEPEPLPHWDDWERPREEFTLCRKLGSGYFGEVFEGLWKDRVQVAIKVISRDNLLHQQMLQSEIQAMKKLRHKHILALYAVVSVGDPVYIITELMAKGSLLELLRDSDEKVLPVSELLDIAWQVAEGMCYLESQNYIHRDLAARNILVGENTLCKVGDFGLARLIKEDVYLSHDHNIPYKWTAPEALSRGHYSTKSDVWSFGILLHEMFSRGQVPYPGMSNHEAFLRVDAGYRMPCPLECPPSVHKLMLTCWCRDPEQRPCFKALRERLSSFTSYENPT

[5] = molecular target: MAP kinase-activated protein kinase 3 (Homo sapiens, UniProt Q16644); assay type: functional;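 note: value comes from a kinome-wide profiling panel in which MAPKAPK3 is one of the panel members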
Sequence of MAP kinase-activated protein kinase 3 (Q16644 whole entry): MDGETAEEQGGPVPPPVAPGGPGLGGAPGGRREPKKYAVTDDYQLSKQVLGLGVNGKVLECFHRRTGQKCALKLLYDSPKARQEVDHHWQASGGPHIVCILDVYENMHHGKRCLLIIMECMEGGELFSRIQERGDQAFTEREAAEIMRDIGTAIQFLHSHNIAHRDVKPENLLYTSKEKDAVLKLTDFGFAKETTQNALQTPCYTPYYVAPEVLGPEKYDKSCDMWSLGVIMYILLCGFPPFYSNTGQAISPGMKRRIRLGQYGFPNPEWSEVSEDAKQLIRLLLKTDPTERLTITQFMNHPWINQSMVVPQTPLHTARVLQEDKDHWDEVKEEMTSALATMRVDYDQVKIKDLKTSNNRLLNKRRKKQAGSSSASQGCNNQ

[6] = molecular target: MAP kinase-activated protein kinase 2 (Homo sapiens, UniProt P49137); assay type: functional;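 note: measured as one member of a kinome-wide kinase panel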
[7] = molecular target: Mitogen-activated protein kinase kinase kinase kinase 4 (Homo sapiens, UniProt O95819); assay type: functional
Sequence of Mitogen-activated protein kinase kinase kinase kinase 4 (O95819 whole entry): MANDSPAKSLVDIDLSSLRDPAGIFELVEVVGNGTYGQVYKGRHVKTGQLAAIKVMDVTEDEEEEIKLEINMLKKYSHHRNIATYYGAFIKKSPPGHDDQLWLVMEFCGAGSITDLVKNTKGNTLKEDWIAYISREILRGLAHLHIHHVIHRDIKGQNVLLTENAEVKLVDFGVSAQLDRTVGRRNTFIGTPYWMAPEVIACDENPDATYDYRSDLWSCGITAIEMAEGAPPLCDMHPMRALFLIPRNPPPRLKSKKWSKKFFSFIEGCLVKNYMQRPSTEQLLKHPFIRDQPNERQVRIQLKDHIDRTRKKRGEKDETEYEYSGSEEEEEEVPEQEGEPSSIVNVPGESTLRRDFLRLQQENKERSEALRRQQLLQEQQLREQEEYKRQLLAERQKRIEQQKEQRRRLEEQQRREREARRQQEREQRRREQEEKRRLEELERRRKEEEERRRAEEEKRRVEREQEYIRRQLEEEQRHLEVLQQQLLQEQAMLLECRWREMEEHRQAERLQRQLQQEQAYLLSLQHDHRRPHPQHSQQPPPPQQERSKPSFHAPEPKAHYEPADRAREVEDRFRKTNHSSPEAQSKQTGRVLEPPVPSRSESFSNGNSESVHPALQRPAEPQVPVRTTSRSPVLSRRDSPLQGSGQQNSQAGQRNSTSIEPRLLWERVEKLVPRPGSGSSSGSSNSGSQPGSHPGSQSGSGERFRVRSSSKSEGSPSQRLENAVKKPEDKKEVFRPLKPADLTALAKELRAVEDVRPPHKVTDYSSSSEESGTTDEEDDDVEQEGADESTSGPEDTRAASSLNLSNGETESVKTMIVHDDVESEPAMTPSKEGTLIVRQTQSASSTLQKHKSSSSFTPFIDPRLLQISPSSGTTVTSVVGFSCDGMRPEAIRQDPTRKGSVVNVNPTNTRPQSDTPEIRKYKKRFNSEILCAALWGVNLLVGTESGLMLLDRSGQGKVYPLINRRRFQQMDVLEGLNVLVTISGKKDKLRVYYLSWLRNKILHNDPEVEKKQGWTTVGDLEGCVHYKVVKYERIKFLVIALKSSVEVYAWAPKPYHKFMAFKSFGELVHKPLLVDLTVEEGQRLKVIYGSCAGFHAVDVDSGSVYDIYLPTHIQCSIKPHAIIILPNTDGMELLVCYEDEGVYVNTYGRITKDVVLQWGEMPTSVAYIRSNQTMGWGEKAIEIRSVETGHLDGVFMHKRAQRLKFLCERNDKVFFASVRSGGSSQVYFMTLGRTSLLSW

[8] = molecular target: Macrophage colony-stimulating factor 1 receptor (Homo sapiens, UniProt P07333); assay type: functional;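 note: value comes from the Navigating the Kinome screening panel, CSF1R member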
[9] = molecular target: Protein kinase C delta type (Homo sapiens, UniProt Q05655); assay type: functional
Sequence of Protein kinase C delta type (Q05655 whole entry, canonical isoform): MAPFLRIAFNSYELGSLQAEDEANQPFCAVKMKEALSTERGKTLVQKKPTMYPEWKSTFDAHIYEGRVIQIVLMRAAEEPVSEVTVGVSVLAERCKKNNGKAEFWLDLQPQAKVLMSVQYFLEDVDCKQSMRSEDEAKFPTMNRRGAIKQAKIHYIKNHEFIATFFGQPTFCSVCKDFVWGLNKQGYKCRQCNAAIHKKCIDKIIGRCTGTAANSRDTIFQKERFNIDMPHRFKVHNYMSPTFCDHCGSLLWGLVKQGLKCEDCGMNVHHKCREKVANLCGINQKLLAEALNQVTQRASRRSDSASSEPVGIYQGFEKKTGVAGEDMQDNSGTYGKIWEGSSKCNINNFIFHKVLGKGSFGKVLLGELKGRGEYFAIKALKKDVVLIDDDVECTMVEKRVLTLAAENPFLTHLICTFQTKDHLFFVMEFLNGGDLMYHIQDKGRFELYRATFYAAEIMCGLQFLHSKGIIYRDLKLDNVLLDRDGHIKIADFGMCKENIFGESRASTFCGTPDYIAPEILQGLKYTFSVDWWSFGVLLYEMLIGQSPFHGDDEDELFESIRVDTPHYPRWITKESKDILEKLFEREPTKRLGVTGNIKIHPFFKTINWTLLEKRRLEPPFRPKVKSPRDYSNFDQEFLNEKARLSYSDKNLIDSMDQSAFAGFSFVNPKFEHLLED

[10] = molecular target: Phosphorylase b kinase gamma catalytic chain, liver/testis isoform (Homo sapiens, UniProt P15735); assay type: functional;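 note: PHKG2 measured as one member of a kinome-wide kinase panel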
Sequence of Phosphorylase b kinase gamma catalytic chain, liver/testis isoform (P15735 whole entry, canonical isoform): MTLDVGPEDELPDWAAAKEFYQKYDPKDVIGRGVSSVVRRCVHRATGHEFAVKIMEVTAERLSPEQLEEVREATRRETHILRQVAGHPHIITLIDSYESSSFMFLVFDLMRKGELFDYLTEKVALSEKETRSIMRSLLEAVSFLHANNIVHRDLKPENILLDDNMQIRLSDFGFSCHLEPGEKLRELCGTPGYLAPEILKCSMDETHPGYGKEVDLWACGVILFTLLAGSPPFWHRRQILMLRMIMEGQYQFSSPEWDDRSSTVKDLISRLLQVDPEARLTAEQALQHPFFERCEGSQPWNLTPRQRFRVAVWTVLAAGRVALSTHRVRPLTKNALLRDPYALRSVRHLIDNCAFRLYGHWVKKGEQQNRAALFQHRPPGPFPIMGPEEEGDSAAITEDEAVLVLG

[11] = molecular target: Ribosomal protein S6 kinase beta-1 (Homo sapiens, UniProt P23443); assay type: functional;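 note: measured as one member of a kinome-wide profiling panel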
[12] = molecular target: Serine/threonine-protein kinase 3 (Homo sapiens, UniProt Q13188); assay type: functional;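 note: measured as one member of a kinome-wide kinase panel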
[13] = molecular target: MAP kinase-activated protein kinase 5 (Homo sapiens, UniProt Q8IW41); assay type: functional;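 note: measured as one member of a kinome panel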
[14] = molecular target: Protein kinase C zeta type (Homo sapiens, UniProt Q05513); assay type: functional;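 note: measured as one member of a broad kinase profiling panel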
[15] = molecular target: Homeodomain-interacting protein kinase 2 (Homo sapiens, UniProt Q9H2X6); assay type: functional;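 note: measured within a kinome-wide kinase profiling panel, HIPK2 being one panel member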
[16] = molecular target: Serine/threonine-protein kinase PLK1 (Homo sapiens, UniProt P53350); assay type: functional;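 note: PLK1 measured as one member of a kinome-wide profiling panel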
[17] = molecular target: Serine/threonine-protein kinase D3 (Homo sapiens, UniProt O94806); assay type: functional;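 note: determined within a kinase panel screen, with PRKCN as the panel member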
Sequence of Serine/threonine-protein kinase D3 (O94806 whole entry): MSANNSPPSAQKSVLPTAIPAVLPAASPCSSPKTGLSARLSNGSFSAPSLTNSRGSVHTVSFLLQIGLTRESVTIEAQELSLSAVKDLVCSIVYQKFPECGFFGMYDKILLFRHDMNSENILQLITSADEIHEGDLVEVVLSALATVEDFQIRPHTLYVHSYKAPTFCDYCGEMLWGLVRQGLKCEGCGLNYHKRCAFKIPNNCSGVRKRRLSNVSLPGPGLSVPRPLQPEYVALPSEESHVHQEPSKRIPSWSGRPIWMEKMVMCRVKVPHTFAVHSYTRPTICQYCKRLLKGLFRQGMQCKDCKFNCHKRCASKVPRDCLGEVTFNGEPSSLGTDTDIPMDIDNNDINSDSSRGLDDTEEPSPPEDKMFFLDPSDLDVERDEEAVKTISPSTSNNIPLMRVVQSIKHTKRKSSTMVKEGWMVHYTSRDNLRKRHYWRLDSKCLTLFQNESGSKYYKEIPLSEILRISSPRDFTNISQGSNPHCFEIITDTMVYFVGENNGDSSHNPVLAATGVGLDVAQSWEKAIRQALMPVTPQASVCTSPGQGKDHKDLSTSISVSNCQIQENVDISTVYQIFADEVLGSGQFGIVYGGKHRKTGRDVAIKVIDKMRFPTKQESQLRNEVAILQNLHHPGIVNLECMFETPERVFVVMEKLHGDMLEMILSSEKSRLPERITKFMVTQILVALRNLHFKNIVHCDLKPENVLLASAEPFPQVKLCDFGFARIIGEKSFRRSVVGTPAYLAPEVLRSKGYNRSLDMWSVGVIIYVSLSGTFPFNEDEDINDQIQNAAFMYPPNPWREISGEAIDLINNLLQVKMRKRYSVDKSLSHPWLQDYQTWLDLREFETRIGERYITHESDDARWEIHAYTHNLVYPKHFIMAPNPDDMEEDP

[18] = molecular target: T1, Mannose-6-phosphate isomerase (Homo sapiens, UniProt P34949); test: human PMI inhibitors, high substrate, primary screen, biochemical, fluorescence intensity, high mannose 6-phosphate (AID 1220)
T1 sequence (P34949 whole entry): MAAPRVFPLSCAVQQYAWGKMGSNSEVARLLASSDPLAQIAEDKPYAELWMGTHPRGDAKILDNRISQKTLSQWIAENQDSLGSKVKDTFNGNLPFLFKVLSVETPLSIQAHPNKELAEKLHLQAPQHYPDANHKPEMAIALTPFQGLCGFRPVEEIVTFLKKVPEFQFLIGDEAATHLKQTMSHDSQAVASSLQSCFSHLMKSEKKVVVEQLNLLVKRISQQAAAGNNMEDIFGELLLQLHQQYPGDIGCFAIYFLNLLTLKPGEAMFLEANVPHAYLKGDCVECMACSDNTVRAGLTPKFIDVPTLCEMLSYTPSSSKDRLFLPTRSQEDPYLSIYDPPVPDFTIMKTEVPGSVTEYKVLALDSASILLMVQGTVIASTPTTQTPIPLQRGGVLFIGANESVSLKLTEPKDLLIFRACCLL

[19] = molecular target: Procathepsin L (Homo sapiens, UniProt P07711)
[20] = Luminescence Cell-Based Dose Response HTS to Identify Activators of Luciferase Translation or Activity in H4 […] Cells. [Related pubchem assays: 1829 (Project Summary), 1814 (Primary HTS)]; assay type: functional
[21] = molecular target: Paired box protein Pax-8 (Homo sapiens, UniProt Q06710); test: inhibitors of PAX8-driven TPO luciferase reporter, dose response, RMG-I cells, cherry-pick (AID 687027); assay type: functional, cell-based;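 note: luciferase reporter driven by Pax8 target thyroperoxidase promoter measured by SteadyGlo luminescence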
[22] = molecular target: Induced myeloid leukemia cell differentiation protein Mcl-1 (Homo sapiens, UniProt Q07820); assay type: functional
Sequence of Induced myeloid leukemia cell differentiation protein Mcl-1 (Q07820 whole entry): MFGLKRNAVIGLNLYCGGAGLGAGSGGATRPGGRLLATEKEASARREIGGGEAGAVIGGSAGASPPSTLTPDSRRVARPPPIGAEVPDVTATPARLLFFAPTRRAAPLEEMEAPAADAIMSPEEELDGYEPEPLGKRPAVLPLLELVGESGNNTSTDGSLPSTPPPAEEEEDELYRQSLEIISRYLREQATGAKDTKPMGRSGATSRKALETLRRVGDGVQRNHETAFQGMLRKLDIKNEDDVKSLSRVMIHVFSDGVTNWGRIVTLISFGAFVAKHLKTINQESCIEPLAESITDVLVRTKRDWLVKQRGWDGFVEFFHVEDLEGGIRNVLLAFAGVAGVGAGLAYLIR

[23] = molecular target: ORF 73 (Human herpesvirus 8, UniProt O40947); test: inhibitors of C-LANA binding to LBS DNA, dose response, biochemical, fluorescence polarization, cherry-picked samples (AID 504725); design: species or system Human gammaherpesvirus 8;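 note: fluorescence polarization of a labeled DNA duplex reporting LANA DNA binding; potency is for inhibitors that block LANA binding to the DNA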
[24] = molecular target: T2, Sentrin-specific protease 6 (Homo sapiens, UniProt Q9GZR1); assay type: functional;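 note: Luminescence-based dose-response confirmatory assay of SENP6 inhibition, following up an ultra-high-throughput screen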
T2 sequence (Q9GZR1 whole entry): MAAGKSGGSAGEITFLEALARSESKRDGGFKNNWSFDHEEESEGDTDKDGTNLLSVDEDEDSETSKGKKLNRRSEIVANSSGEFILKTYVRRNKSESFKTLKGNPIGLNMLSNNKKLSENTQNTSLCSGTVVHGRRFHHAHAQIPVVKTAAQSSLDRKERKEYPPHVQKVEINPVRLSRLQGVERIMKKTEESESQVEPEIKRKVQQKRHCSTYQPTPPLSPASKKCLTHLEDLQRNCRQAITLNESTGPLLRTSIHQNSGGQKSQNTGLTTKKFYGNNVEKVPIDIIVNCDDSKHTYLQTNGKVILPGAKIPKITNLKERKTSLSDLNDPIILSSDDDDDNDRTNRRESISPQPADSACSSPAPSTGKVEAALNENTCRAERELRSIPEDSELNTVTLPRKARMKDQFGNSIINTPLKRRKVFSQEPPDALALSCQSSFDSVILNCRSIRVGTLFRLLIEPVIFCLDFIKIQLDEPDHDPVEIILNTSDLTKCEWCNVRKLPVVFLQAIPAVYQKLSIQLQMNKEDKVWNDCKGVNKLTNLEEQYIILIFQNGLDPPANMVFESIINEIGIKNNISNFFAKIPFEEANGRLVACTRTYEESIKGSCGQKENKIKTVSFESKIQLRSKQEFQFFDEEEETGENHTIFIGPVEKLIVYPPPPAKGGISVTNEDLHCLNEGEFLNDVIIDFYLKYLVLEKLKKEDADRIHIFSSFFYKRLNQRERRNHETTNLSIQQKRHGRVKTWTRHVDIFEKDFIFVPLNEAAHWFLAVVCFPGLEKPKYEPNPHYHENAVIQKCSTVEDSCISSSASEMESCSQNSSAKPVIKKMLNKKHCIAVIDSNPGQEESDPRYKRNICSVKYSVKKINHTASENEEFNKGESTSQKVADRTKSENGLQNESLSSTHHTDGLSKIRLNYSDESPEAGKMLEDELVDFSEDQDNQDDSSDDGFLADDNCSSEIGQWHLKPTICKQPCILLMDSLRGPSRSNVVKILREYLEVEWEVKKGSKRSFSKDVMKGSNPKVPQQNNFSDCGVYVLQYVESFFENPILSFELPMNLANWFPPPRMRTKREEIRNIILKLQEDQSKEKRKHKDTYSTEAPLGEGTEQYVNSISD

Sequence of SRSF protein kinase 1 (Q96SB4 whole entry): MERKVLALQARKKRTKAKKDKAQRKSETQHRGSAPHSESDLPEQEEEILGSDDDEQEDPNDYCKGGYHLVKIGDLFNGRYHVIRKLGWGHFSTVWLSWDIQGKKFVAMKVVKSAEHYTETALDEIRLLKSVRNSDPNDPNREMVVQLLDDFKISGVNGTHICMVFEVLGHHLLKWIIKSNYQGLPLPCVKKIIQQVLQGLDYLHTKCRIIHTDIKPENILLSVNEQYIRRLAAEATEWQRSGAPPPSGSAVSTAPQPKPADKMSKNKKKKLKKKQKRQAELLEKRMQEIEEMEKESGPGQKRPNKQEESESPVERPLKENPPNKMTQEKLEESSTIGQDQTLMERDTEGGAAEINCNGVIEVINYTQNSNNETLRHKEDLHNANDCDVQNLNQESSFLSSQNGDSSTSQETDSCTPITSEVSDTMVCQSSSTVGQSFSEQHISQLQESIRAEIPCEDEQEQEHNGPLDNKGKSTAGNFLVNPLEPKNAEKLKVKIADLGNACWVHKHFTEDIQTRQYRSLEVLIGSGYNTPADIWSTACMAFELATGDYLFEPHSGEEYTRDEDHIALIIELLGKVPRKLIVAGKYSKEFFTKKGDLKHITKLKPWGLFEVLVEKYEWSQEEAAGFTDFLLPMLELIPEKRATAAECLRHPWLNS

In the case of `Cc1cccc(NC(=O)Nc2ccc3c(c2)CCc2sc4ncnc(N)c4c2-3)c1`, the Ki [1] is reported as 5.01 µM (active), the Ki [2] is reported as 3.16 µM (active) and the Ki [3] is reported as 0.251 µM (active). The Ki [4] was > 2.51 µM (inactive), the Ki [5] was > 10 µM (inactive) and the Ki [6] was > 7.94 µM (inactive). For the same molecule, the Ki [7] was 2.51 µM (active), the Ki [8] was > 2.51 µM (inactive) and the Ki [9] was 7.94 µM (active). For the same molecule, the Ki [10] was > 5.01 µM (inactive), the Ki [11] was 0.0398 µM (active) and the Ki [12] was > 7.94 µM (inactive). The Ki [13] was > 1.58 µM (inactive), the Ki [14] was > 7.94 µM (inactive) and the Ki [15] was > 3.16 µM (inactive). The Ki [16] was > 7.94 µM (inactive) and the Ki [17] was 2.51 µM (active).
For `Cc1ccc(-n2sc3ccccc3c2=O)cc1`, the IC50 [18] was 22 µM (active), the IC50 [19] was > 59.6 µM (not active) and the EC50 [20] was 23.3 µM (active).
In the case of `CCC(=O)NC(c1ccc(C)cc1)c1ccc2cccnc2c1O` (centres undefined), the AC50 [21] is reported as 1.81 µM (active).
With `N/C(=N\N=C/c1ccc(-c2ccc(O)c(C(=O)O)c2)o1)N[N+](=O)[O-]` the IC50 [22] was 3.86 µM (active) and the AC50 [23] was 111 µM (active).
For `CC(=O)N(/N=C1\Sc2ccccc2C1=O)c1ccccc1C`, the IC50 [24] was 1.91 µM (active).
